In patent publication US20070129330A1, “1,3-Diaza-dibenzo[e,h]azulenes for the treatment of central nervous system diseases and disorders” (Pliva-Istrazivacki Institut d.o.o., priority 2003, published 2007):
pIC50, pKi: −log10 of the molar value.

Legend:
[1] = target: T1, 5-HT2A receptor (Homo sapiens, UniProt P28223); assay: radioligand binding assay for 5-HT2A receptor ([3H]-ketanserin competitive binding); details: human cortex or recombinant 5-HT2A receptor expressed in CHO-K1 cells; for pIC50: read-out: binding affinity to 5-HT2A serotonin receptor expressed as IC50 value; for pKi: read-out: binding affinity to 5-HT2A serotonin receptor, Ki value
T1 construct: expressed in transfected cells; host or cells: CHO-K1 (alternatively human cortex tissue)
Experimental: (§1) The effect of the compounds of the present invention on the neurochemical steady state was determined by in vitro investigations such as a radionuclide-marked radioligand binding assay for 5-HT2A (Bonhaus D. W. Br. J. Pharmacol. 1995, 115:622; Saucier C. J. Neurochem. 1997, 68:1998) and 5-HT2C receptors (Wolf W.A. J. Neurochem. 1997, 69:1449), in vitro binding assay for the σ1 receptor (Thomson W. and Donn R. Arthritis Res. 2002, 4: 302-306) and by in vivo investigations in a tail suspension test (Vogel H. G. and Vogel W. H. Drug Discovery and Evaluation Pharmacological Assays, Springer 1997, 304), in amphetamine-induced hyperlocomotion in mice (Millan M. J. et al, 1998 J. Pharmacol. Exp. Ther. 287: 167-186), in a forced swim test in mice (Porsolt R. D. et al. Arch. Int. Pharmacodyn. 1977, 229:327-336), in meta-chlorophenyl piperazine (m-CPP) test on rats (Drug Dev. Res. 1989, 18:119-144), and in apomorphine, tryptamine and norepinephrine (ATN) test in rats (Arch. Int. Pharmacodyn. 1977, 227:238-253).
(§2) A small concentration of a radioligand having a great affinity for binding to a receptor was incubated with a tissue sample enriched with a certain receptor (1-5 mg of tissue) in a buffered medium (0.2-5 mL). Recombinant human HT2A and HT2C receptors were expressed in CHO-K1 or COS-7 cells and were also used for competitive binding. During incubation the radioligand bound to the receptor. When a binding balance was achieved, the receptors to which the radioligand was bound were separated from those to which said ligand was not bound, and the radioactivity of the receptor/radioligand complex was measured. The interaction of the tested compounds with receptors was tested in competitive binding experiments. Various concentrations of tested compounds were added to the incubation mixture containing a prepared tissue enriched with corresponding receptors and the radioligand. The radioligand binding was inhibited by the test compounds proportionally to the affinity of a certain compound for the receptor and to the concentration of the compound.
(§3) The radioligand used for the determination of binding to 5-HT2A receptor was [^3H]-ketanserin and the tissue used was human cortex or recombinant 5-HT2A receptor expressed in CHO-K1 cells. The radioligand used for the determination of binding to 5-HT2C receptor was [^3H]-mesulergine and the tissue used was choroid plexus or recombinant 5-HT2C receptor expressed in CHO-K1 cells.
(§4) It is anticipated that similar results will be observed for other compounds of the invention.

[2] = target: T2, 5-HT2C receptor (Homo sapiens, UniProt P28335); assay: radioligand binding assay for 5-HT2C receptor ([3H]-mesulergine competitive binding); details: choroid plexus or recombinant 5-HT2C receptor expressed in CHO-K1 cells; for pIC50: read-out: binding affinity to 5-HT2C serotonin receptor expressed as IC50 value; for pKi: read-out: binding affinity to 5-HT2C serotonin receptor, Ki value
T2 construct: expressed in transfected cells; host or cells: CHO-K1 (alternatively choroid plexus tissue)
T2 sequence (P28335 33-458): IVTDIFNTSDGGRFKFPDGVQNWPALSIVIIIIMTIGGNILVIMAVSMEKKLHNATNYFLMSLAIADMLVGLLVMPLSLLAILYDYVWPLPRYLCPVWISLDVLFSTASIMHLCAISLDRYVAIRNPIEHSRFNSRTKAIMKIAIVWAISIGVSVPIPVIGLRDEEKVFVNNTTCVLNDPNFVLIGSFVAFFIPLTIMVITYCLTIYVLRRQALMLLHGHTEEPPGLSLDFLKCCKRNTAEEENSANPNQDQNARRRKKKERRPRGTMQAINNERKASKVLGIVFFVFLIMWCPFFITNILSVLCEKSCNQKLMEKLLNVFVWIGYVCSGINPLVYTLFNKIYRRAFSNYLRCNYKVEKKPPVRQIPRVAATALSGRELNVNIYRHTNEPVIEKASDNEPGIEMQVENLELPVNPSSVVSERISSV
Experimental: as §1, §2, §3, §4

T1 sequence (P28223 whole entry): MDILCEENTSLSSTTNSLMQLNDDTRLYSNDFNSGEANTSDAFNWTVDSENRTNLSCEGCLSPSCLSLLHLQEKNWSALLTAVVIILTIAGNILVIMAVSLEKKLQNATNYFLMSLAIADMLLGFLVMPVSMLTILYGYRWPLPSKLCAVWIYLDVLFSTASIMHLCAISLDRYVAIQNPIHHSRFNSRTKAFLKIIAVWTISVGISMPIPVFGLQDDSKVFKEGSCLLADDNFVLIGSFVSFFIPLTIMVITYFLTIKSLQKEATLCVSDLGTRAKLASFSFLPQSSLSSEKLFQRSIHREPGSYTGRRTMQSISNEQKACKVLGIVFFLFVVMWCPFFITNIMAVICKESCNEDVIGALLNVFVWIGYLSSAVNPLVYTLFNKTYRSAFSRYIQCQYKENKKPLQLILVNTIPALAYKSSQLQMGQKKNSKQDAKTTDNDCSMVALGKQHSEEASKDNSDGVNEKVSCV

| pIC50 [1] | pKi [1] | pIC50 [2] | pKi [2] | SMILES |
| --- | --- | --- | --- | --- |
| > 6.70 | > 7.00 | > 6.70 | > 7.00 | Clc1ccc2c(c1)-c1[nH]cnc1-c1ccccc1O2 [11chloro-1H-8-oxa-1,3-diaza-dibenzo[e,h]azulene] |
| > 6.70 | > 7.00 | > 6.70 | > 7.00 | CN(C)CCCOCc1nc2c([nH]1)-c1cc(Cl)ccc1Sc1ccccc1-2 [[3-(11-chloro-1H-8-thia-1,3-diaza-dibenzo[e,h]azulen-2-ylmethoxy)-propyl]-dimethyl-amine] |
| > 6.70 | > 7.00 | > 6.70 | > 7.00 | CN(C)CCOCc1nc2c(n1C)-c1ccccc1Sc1ccccc1-2 [dimethyl-[2-(1-methyl-1H-8-thia-1,3-diaza-dibenzo[e,h]azulen-2-ylmethoxy)-ethyl]-amine] |
| > 6.70 | > 7.00 | > 6.70 | > 7.00 | CN(C)CCCOc1ccccc1-c1nc2c([nH]1)-c1ccccc1Sc1ccccc1-2 [dimethyl-{3-[2-(1H-8-thia-1,3-diaza-dibenzo[e,h]azulen-2-yl)-phenoxy]-propyl}-amine] |
